# Measured values published in patent US20070128669A1, “Serum-free expansion of cells in culture” (Institute for Chemical Genomics, priority 2005, published 2007).
# Experiments:
# Murine ESCs (D3 ES) = assay: Alkaline phosphatase activity of ESCs (compound screen); type: cell-based, mouse; conditions: media containing 15% FCS, without exogenous LIF
# Experimental: (§1) Cell culture. ESCs, D3ES (ATCC CRL-1934) were maintained on Mitomycin C treated MEFs in mouse ESC medium containing DMEM (Invitrogen) supplemented with 15% FBS (Invitrogen), 0.1 mM MEM nonessential amino acids (Invitrogen), 0.1 mM 2-mercaptoethanol (Sigma), 2 mM L-glutamine (Invitrogen) and 1,000 U/ml LIF (CHEMICON). To remove MEFs, cells were collected by trypsinization and plated on gelatin-coated culture dishes for 20 min. Non-adherent cells consisting mainly of ESCs were replated on gelatin-coated culture dishes again. Non-adherent cells were used for further experiments. P19 cells were cultured according to conditions recommended by the ATCC. Cells were incubated at 37° C. in a 5% CO2 incubator. Purified Wnt3a was purchased (R&D Systems).
# Compound Screens. For the small molecule screen, alkaline phosphatase activity of ESCs was determined. ESCs were plated into 96-well tissue culture plates (Falcon) at a density of 316-1,000 cells per well in ESC medium without LIF. Compounds were added at a final concentration of 4 μg/ml. Cells were treated with compounds for 7 days and test cell populations were washed with PBS and 100 μl of p-nitrophenyl phosphate solution (MOSS Inc.) was added. The absorbance at 405 nm was measured by spectrophotometer (Spectramax, Molecular Devices).
# Mouse D3 ESCs = assay: Long term expansion of ESCs without MEF feeders or LIF; type: cell-based
# Experimental: FIG. 1. […] FIG. 1A, Structure of IQ-1. FIG. 1B, IQ-1 dose dependently maintains alkaline phosphatase activity. FIG. 1C, IQ-1, dose dependently, maintains SSEA-1 expression. SSEA-1 expression was analyzed 7 days after addition of IQ-1. FIG. 1D, IQ-1 enabled ESCs to proliferate in the undifferentiated state for at least 65 days, without MEF feeders or LIF. ESCs, in media supplemented with 4 μg/ml IQ-1, were passaged 2-3 times every week at 1×10^5-1×10^6 cells per 6 cm dish and counted. All error bars represent mean±SD.
# as §1
# IQ-1 allowed for long term expansion of ESCs in culture without MEFs and without the addition of exogenous LIF. […]
# [1] = tested on: Nanog gene expression in ESCs; assay: Real-time RT-PCR for Nanog in feeder-free ESCs; type: cell-based, mouse
# Experimental: FIG. 2. […] Real-time RT-PCR for Nanog was performed. The control expression level of Nanog at day 0 was set at 1. FIG. 2B, removal of IQ-1 decreases Nanog gene expression in ESCs. IQ-1 was removed from ESCs which had been cultured under feeder-free system and in the presence of IQ-1 (4 μg/ml), for three days. At the end of this period, mRNA was isolated and real-time RT-PCR was performed to assay for Nanog gene expression. FIG. 2C, effects of IQ-1 were not mediated through Stat3 signaling pathway as judged by luciferase reporter assay. Feeder-free ESCs, transfected with the pSTAT3-TA-Luc reporter, were exposed to IQ-1 at the indicated doses, or LIF. All error bars represent mean±SD.
# Real-time RT-PCR. Total RNA was isolated and reverse-transcribed using SuperScript III (Invitrogen). Real-time RT-PCR (Sybr Green; BioRad) was performed using with the gene-specific primers: […]
# Stat3 signaling pathway = assay: pSTAT3-TA-Luc luciferase reporter assay in ESCs; type: cell-based, mouse; conditions: 24 hours exposure
# Experimental: Transfection and Luciferase assay. ESCs were cultured in 96-well cell culture dishes coated with a 0.1% aqueous gelatin solution and transfected with 0.2 μg/well of pSTAT3-TA-Luc (CLONTECH), using Lipofectamine 2000 (Invitrogen). After 6 hours, cells were washed and exposed to either IQ-1 at the indicated doses, or LIF, for 24 hours. Transfection efficiencies were normalized with pRL-null luciferase plasmid. Luciferase assays were performed with the DUAL-Luciferase Reporter Assay System (Promega).
# zebrafish embryos = assay: Zebrafish embryo development (convergent extension); type: in vivo, zebrafish (danio rerio); conditions: 1 μM, 1-cell stage embryos, 24 h
# Experimental: Zebrafish experiments. Wild-type (AB) zebrafish strain at 1-cell stage were treated with IQ-1 at a final concentration of 1 μM in embryo medium for 24 h. Control zebrafish embryos were incubated at an equivalent concentration of DMSO. At the end of this 24 h treatment, embryos were manually dechorionated and imaged. Zebrafish embryos were maintained at 28° C. Results shown are representative of those obtained from at least 10 embryos for each group, from 2 independent experiments.
# p300/β-catenin complex = assay: Co-immunoprecipitation of β-catenin with p300 in P19 cells; type: cell-based; conditions: Wnt3a, 10 μM, 24 hours
# Experimental: Co-immunoprecipitation of β-catenin with CBP or p300 in P19 cells. Co-immunoprecipitation was performed as described in (27). Briefly, P19 cells were treated with 10 μM ICG-001 or 10 μM IQ-1 (control DMSO was 0.025%) for 24 hours, after which they were washed and lysed […]. Nuclear fraction was isolated and precleared with antibodies to CBP(A-22) or p300(N-15). β-catenin was detected using a mouse monoclonal antibody (Becton Dickinson) at a dilution of 1:5000.
# ESCs = assay: Embryoid body formation and differentiation of long term cultured ESCs; type: cell-based, mouse
# Experimental: FIG. 5. […] FIG. 5A, long term cultured ESCs were induced to form embryoid bodies in suspension cultures for 3 days. ESCs cultured in media in the presence of Wnt3A and IQ-1 (4 μg/ml) for 48 days were able to form embryoid bodies (Left). ESCs lose their ability to form embryoid bodies after 3 days of culturing in the absence IQ-1 (Right). FIG. 5B, IQ-1 treated ESCs derived embryoid bodies were cultured (adherence culture) for 7-14 days to induce further differentiation. […] FIG. 5C, model depicting the proposed mechanism of action of IQ-1.
# Immunocytochemistry and Antibodies. Cells were fixed for 20 min with 4% paraformaldehyde in PBS. Immunostaining was carried out using standard protocols. Primary antibodies were used at the following dilutions: anti α-fetoprotein mouse monoclonal (R&D systems, 10 ug/ml), anti-Actin, Smooth muscle Ab-1 mouse monoclonal (LAB VISION, 1:1), anti-GATA4 mouse monoclonal (SANTA CRUZ, 1:100), anti-MAP (microtubule associated protein)2 mouse monoclonal (Chemicon, 1:200), βIII-tubulin mouse monoclonal (Chemicon, 1:200), anti-Oligodendrocyte mouse monoclonal (Chemicon, 1:1,000). Secondary antibodies were Alexa Fluor 488 or 594 goat anti-mouse IgG (H+L)(Invitrogen, 1:200). Cells were imaged using an Olympus IX 70 microscope with ×40-200 magnification.
compound,measurement,setting,value
CC(=O)c1ccc(NN=C(C(N)=O)C2=NC(C)(C)Cc3ccccc32)cc1 [IQ-1],Alkaline Phosphatase (AP) activity,Murine ESCs (D3 ES),dose dependently increased AP activity
same,time ESCs proliferate in the undifferentiated state,"Mouse D3 ESCs; 4 μg/ml IQ-1, without MEF feeders or LIF",at least 65 days
same,ESC proliferation rate,"Mouse D3 ESCs; 15% FCS plus 4 μg/ml IQ-1, 65 days, without MEFs or LIF",~2 log increase every ten days
same,Nanog level after removal of IQ-1 from culture,[1]; IQ-1 (4 μg/ml) removed for three days,precipitous drop in Nanog level
same,Nanog expression,"[1]; feeder-free ESCs, IQ-1 4 μg/ml or LIF 1000 U/ml, 21 hrs",significantly increased and maintained Nanog expression
same,Stat3/luciferase expression,Stat3 signaling pathway,did not affect Stat3/luciferase expression
same,zebrafish embryo development,zebrafish embryos,significant developmental defects
same,p300/β-catenin interaction,p300/β-catenin complex,at the expense of the p300/β-catenin complex
same,pluripotency: embryoid body formation and differentiation to three germ layers,"ESCs; IQ-1 (4 μg/ml) and Wnt3a, after day 48",maintained the pluripotency of ESCs
same,time to loss of pluripotency after removal of IQ-1,ESCs; removal of IQ-1,≤ 3 days
